According to patent US7371779B2, “Synergistic compositions of N-acylhomoserine lactones and 4-quinolones” (The Secretary of State for Defense Science and Technology, priority 2001, dated 2008):
Where two headings read alike, the source gives them in different places.

Assays:
[1] = system: murine splenocytes; test: ConA mitogen-stimulated proliferation of murine splenocytes ([3H]-thymidine incorporation); assay type: cell-based, mouse (BALB/c); conditions: ConA 1 μg/ml, 100,000 spleen cells, Experiment I; read-out: IC50 in inhibition of ConA induced murine splenocyte proliferation
Method: (§1) Proliferation was assessed by the incorporation of [^3H]-thymidine into DNA. Eight-week-old female BALB/c mice were obtained from Harlan (Bicester, Oxon, UK) and given food and water ad libitum. Splenocyte suspensions were prepared by removing the spleens and placing them into RPMI 1640 medium. The spleens were forced through 70-μm-pore-size wire gauzes using the plunger from a 5-ml syringe to produce a single cell suspension. The cells were pelleted by centrifugation, and erythrocytes were lysed with 0.017 M Tris, 0.144 M ammonium chloride buffer, pH 7.2. Leucocytes were washed twice with RPMI 1640 medium with 2% (vol/vol) foetal calf serum (FCS) and resuspended in complete cell culture medium (CTCM) consisting of RPMI 1640 medium with 5% FCS, 2 mM L-glutamine, and 5×10^−5 M 2-mercaptoethanol. HSL compounds were tested at doubling down dilutions ranging from 1 mM to 0.1 μM in a final volume of 200 μl of CTCM, containing ConA (Sigma, Poole, UK) at 1 μg/ml and 100,000 spleen cells. Following incubation for 48 h at 37° C. in 5% CO2-air, 0.25 μCi [^3H]-thymidine (Amersham) in 10 μl volume made up in RPMI 1640 medium was added and the cells were incubated for a further 24 h. Cells were harvested onto fibreglass filters with a Packard filtermate harvester. After the addition of 25 μl of MicroScint-O (Packard) to each well the filters were counted with the Packard TopCount scintillation counter.
(§2) Mitogen (Concanavalin A) induced murine splenocyte proliferation was indicated by the incorporation of tritated thymidine into the DNA in the mouse spleen cells as shown by counts per minute using the scintillation counter. The inhibitory effect of an HSL compound being tested on cell proliferation was indicated by a reduction in counts per minute.
as §1, with “70 μm pore size” for “70-μm-pore-size”, “5 ml” for “5-ml”, “The title compound was” for “HSL compounds were”, “dilutions” for “dilutions ranging from 1 mM to 0.1 μM in a final volume of 200 μl of CTCM,”, “g/ml” for “μg/ml”, “COrair,” for “CO2-air,”
as §2, with “the title” for “an HSL”

[2] = system: human PBMC; test: ConA mitogen-stimulated proliferation of human PBMC ([3H]-thymidine incorporation); assay type: cell-based; conditions: for IC50: Experiment II, read-out: IC50 in inhibition of ConA induced cell proliferation of PBMC
Method: Blood specimens were obtained with consent from healthy human volunteers. Human peripheral blood mononuclear cells (PBMC) were isolated from heparinised whole blood by buoyant density centrifugation over Histopaque 1077 (Sigma, Poole, UK) at 600 g for 20 minutes. PBMC harvested from the ‘buffy’ layers were washed twice with RPMI 1640 medium and resuspended in CTCM. […] Human PBMC were incubated for 48 h at 37° C. in 5% CO2-air, followed by pulsing with 0.25 μCi [^3H]-thymidine (see above). After a further incubation of 24 h cells were harvested onto fibreglass filters and then counted in the presence of MicroScint-O with the Packard TopCount.
Concanavalin induced cell proliferation of human peripheral blood mononuclear cells (PBMC) was tracked, as described in I above, by a measurement of counts per minute using the scintillation counter. The inhibitory effect of an HSL compound being tested on cell proliferation was indicated by a reduction in counts per minute. […] Columns B, C and D represent different sources of human PBMC samples used.
Plots of counts per minute (cpm) against the concentration of the quorum sensing molecules and the vehicle are shown in FIG. 11.

[3] = system: TNF-alpha; test: TNF-alpha production from LPS-stimulated human PBMC (sandwich ELISA); assay type: cell-based
Method: Bacterial lipopolysaccharide (LPS) stimulates the production of a variety of cytokines, including TNF-alpha, from human PBMC; these cytokines in turn influence the development of T cells, supporting a T helper 1 conducive milieu. Human PBMC prepared from whole blood by buoyant density centrifugation were resuspended in CTCM. […] Following incubation for 24 h at 37° C. in 5% CO2-air, the cell culture supernatants were collected and tested for TNF-alpha levels by ‘sandwich’ ELISA. Briefly, 96-well Nunc MaxiSorp (Life Technologies, Paisley, UK) plates were coated with 50 μl of a 2 μg/ml solution of mouse anti-human TNF-alpha monoclonal antibody (Pharmingen, UK) in 0.05 M carbonate/bicarbonate buffer, pH 9.6 overnight at 4° C. After washing the plates three times with PBS-Tween, which contained phosphate buffered saline (PBS) with 0.5% (vol/vol) Tween 20 (Sigma, Poole, UK), the plates were blocked with 1% (wt/vol) bovine serum albumin (BSA) (Sigma, Poole, UK) at room temperature for 2 h. Following three washes with PBS-Tween, 50 μl of cell culture supernatants were added and incubated overnight at 4° C.; standard human TNF-alpha (Pharmingen, UK) ranging from 2000 to 31.25 pg/ml were included for each plate. After four washes with PBS-Tween, 50 μl of a second antibody, biotinylated mouse anti-human TNF-alpha monoclonal antibody (Pharmingen, UK) was added at 0.5 μg/1 ml diluted in 1% BSA in PBS-Tween and incubated at room temperature for 1 h. Following four washes, the bound biotinylated antibody was detected with 50 μl of a 1:1,000 dilution of Streptavidin-peroxidase (Pharmingen, UK). At the end of an hour incubation at room temperature, the plates were thoroughly washed six times with PBS-Tween and the assay was developed by the addition of 100 μl of 0.1 mg/ml of tetramethyl benzidine subtrate (Sigma, Poole, UK) in 0.1 M sodium acetate buffer, pH 6 containing 0.03% H2O2. The enzyme reaction was stopped with 50 μl of 2.5 M H2SO4 after an incubation of 10 minutes at room temperature and the development was read at 450 nm with a spectrophotometric 96-well plate reader (Dynex).

**Q.** Which IC50 [1] does the source give for `CCCCCCCCCCCC(=O)CC(=O)N[C@H]1CCOC1=O` [Example 11, N-(3-Oxotetradecanoyl)-L-homoserine lactone] here?
**A.** The IC50 was 6 µM.

**Q.** And the “inhibition of ConA induced proliferation of human PBMC (cpm), in words” value ([2]; ConA 1 μg/ml)?
**A.** Its value is “inhibited proliferation of human PBMC”.

**Q.** And the IC50 ([2]; human PBMC source B)?
**A.** The IC50 was 32 µM.

**Q.** And the IC50 ([2]; human PBMC source C)?
**A.** Its IC50 is 12 µM.

**Q.** And the IC50 ([2]; human PBMC source D)?
**A.** Its IC50 is 30 µM.

**Q.** What about the IC50 ([3]; Experiment III, read-out: IC50 in inhibition of LPS induced production of TNF-α by human PBMC) of the same compound?
**A.** Its IC50 is 35 µM.

**Q.** What about the “inhibition of LPS induced TNF-α production by human PBMC, in words” value ([3]; LPS-stimulated human PBMC) of the same compound?
**A.** The value was “inhibited the secretion”.
